Laboratory results from article PMC8995034 (Science Translational Medicine, 2022).
“And” between values parts separate entries of the source, which are not always exact repeats. Equal values may be shown once. Read-outs that look alike come from different tables or passages of the source.

Columns and labels:
SARS-CoV-2 fLUC = experiment: microbe, parasite or virus in culture; format: cell-based; conditions: for EC50: Severe acute respiratory syndrome coronavirus 2, NHBE, 24 h, read-out: EC50, inhibition of SARS-CoV-2 replication in NHBE cultures; for % Inhibition (Fig1F): duplicate values; for Relative Light Units (RLU) (FigS1C): duplicates
in vivo = conditions: BALB/c, mouse, po, 20 mg/kg
in vitro = conditions: human, % Cytotoxicity (Fig1E)
MERS-CoV = experiment: microbe, parasite or virus in culture; format: cell-based; conditions: Middle East respiratory syndrome-related coronavirus, Calu-3 2B4, read-out: EC50 against MERS-CoV
SARS-CoV-2 nLUC = experiment: microbe, parasite or virus in culture; format: cell-based; conditions: for inhibition at 0.00152 µM: drug 0.00152 µM; for inhibition at 0.00457 µM: drug 0.00457 µM; for inhibition at 0.01372 µM: drug 0.01372 µM; for inhibition at 0.04115 µM: drug 0.04115 µM; for inhibition at 0.37037 µM: drug 0.37037 µM; for inhibition at 3.33333 µM: drug 3.33333 µM; for Relative Light Units (RLU) (FigS1A): replicate wells
[1] = African green monkeys; cited from earlier work
[2] = in vivo; cited from earlier work
SARS-CoV-2 = format: cell-based
[3] = test system: alpha, beta, and gamma SARS-CoV-2 VOCs; conditions: cited from earlier work
[4] = Severe acute respiratory syndrome coronavirus 2, read-out: % Inhibition (Fig1D)
[5] = Severe acute respiratory syndrome coronavirus 2, drug 10 µM, read-out: % Inhibition (Fig1D)
[6] = Severe acute respiratory syndrome coronavirus 2, read-out: Average EC50 (nM) A549-hACE2
[7] = Severe acute respiratory syndrome coronavirus 2, read-out: average half-maximum effective concentration (EC50), SARS-CoV-2 nLUC replication
[8] = concentration 0.222222 (unit not given)
[9] = concentration 0.666667 (unit not given)
[10] = concentration 2 (unit not given)

Question: For `N#C[C@@]1(c2ccc3c(N)ncnn23)O[C@H](CO)[C@@H](O)[C@H]1O` [GS-441524, reference compound], which EC50 (SARS-CoV-2 fLUC) is on record?
Answer: 2.45 µM

Question: And the “% Inhibition (Fig1F)” value (SARS-CoV-2 fLUC; concentration 0.205761 (unit not given))?
Answer: 16.6269% and 13.9332%

Question: What about the “% Inhibition (Fig1F)” value (SARS-CoV-2 fLUC; concentration 0.617284 (unit not given)) of the same molecule?
Answer: 25.1934% and 32.3249%

Question: And the “% Inhibition (Fig1F)” value (SARS-CoV-2 fLUC; concentration 1.85185 (unit not given))?
Answer: 47.2673% and 45.1609%

Question: And the “% Inhibition (Fig1F)” value (SARS-CoV-2 fLUC; concentration 5.55556 (unit not given))?
Answer: 89.9387% and 91.061%

Question: What about the “% Inhibition (Fig1F)” value (SARS-CoV-2 fLUC; concentration 16.6667 (unit not given)) of the same molecule?
Answer: 99.9354% and 99.9435%

Question: And the “% Inhibition (Fig1F)” value (SARS-CoV-2 fLUC; concentration 50 (unit not given))?
Answer: 99.9909% and 99.9933%

Question: And the half-life (in vivo)?
Answer: ~1 h

Question: And the cytotoxicity (in vitro; drug 0.00152 µM)?
Answer: 4.91%

Question: What about the cytotoxicity (in vitro; drug 0.00457 µM) of the same molecule?
Answer: 3.11%

Question: What about the cytotoxicity (in vitro; drug 0.01372 µM) of the same molecule?
Answer: 6.91%

Question: What about the cytotoxicity (in vitro; drug 0.04115 µM) of the same molecule?
Answer: 2.96%

Question: What about the cytotoxicity (in vitro; drug 0.12346 µM) of the same molecule?
Answer: 5.66%

Question: What about the cytotoxicity (in vitro; drug 0.37037 µM) of the same molecule?
Answer: 7.63%

Question: And the cytotoxicity (in vitro; drug 3.33333 µM)?
Answer: 9.21%

Question: And the cytotoxicity (in vitro; drug 10 µM)?
Answer: 7.34%

Question: And the EC50 (MERS-CoV)?
Answer: 2.1 µM

Question: What about the inhibition at 0.00152 µM (SARS-CoV-2 nLUC; [4]) of the same molecule?
Answer: 5.76%

Question: And the inhibition at 0.00457 µM (SARS-CoV-2 nLUC; [4])?
Answer: 7.88%

Question: What about the inhibition at 0.01372 µM (SARS-CoV-2 nLUC; [4]) of the same molecule?
Answer: 0.08%

Question: What about the inhibition at 0.04115 µM (SARS-CoV-2 nLUC; [4]) of the same molecule?
Answer: 5.14%

Question: What about the inhibition at 0.37037 µM (SARS-CoV-2 nLUC; [4]) of the same molecule?
Answer: -4.48%

Question: And the inhibition at 3.33333 µM (SARS-CoV-2 nLUC; [4])?
Answer: 42%

Question: What about the inhibition at 10 µM (SARS-CoV-2 nLUC; [5]) of the same molecule?
Answer: 99%

Question: What about the EC50 (SARS-CoV-2 nLUC; [6]) of the same molecule?
Answer: 3370 nM

Question: What about the EC50 (SARS-CoV-2 nLUC; [7]) of the same molecule?
Answer: 3400 nM

Question: What does the source list for `CC(C)C(=O)OCC1OC(C#N)(c2ccc3c(N)ncnn23)C(OC(=O)C(C)C)C1OC(=O)C(C)C` (centres unmarked) [GS-621763]?
Answer: EC50 (SARS-CoV-2 fLUC): 0.125 µM; % Inhibition (Fig1F) (SARS-CoV-2 fLUC; [8]): 65.5149% and 78.3611%; % Inhibition (Fig1F) (SARS-CoV-2 fLUC; [9]): 97.4321% and 98.0439%; % Inhibition (Fig1F) (SARS-CoV-2 fLUC; [10]): 99.8762% and 99.9108%; Relative Light Units (RLU) (FigS1C) (SARS-CoV-2 fLUC; drug concentration 0.00823): 7706513 RLU and 5857613 RLU; Relative Light Units (RLU) (FigS1C) (SARS-CoV-2 fLUC; drug concentration 0.024691): 7329653 RLU and 5548473 RLU; Relative Light Units (RLU) (FigS1C) (SARS-CoV-2 fLUC; drug concentration 0.074074): 5615903 RLU and 3756783 RLU; Relative Light Units (RLU) (FigS1C) (SARS-CoV-2 fLUC; drug concentration 0.222222): 2451403 RLU and 1538223 RLU; Relative Light Units (RLU) (FigS1C) (SARS-CoV-2 fLUC; drug concentration 0.666667): 182543 RLU and 139053 RLU; Relative Light Units (RLU) (FigS1C) (SARS-CoV-2 fLUC; drug concentration 2): 8803.33 RLU and 6343.33 RLU; intact ester in plasma [1]: no or very minimal intact ester observed in plasma; cytotoxicity (in vitro; drug 0.00152 µM): 5.08%; cytotoxicity (in vitro; drug 0.00457 µM): 2.88%; cytotoxicity (in vitro; drug 0.01372 µM): 4.34%; cytotoxicity (in vitro; drug 0.04115 µM): 5.67%; cytotoxicity (in vitro; drug 0.12346 µM): 6.43%; cytotoxicity (in vitro; drug 0.37037 µM): 7.02%; cytotoxicity (in vitro; drug 1.11111 µM): -1.19%; cytotoxicity (in vitro; drug 3.33333 µM): 1.11%; cytotoxicity (in vitro; drug 10 µM): 4.64%; EC50 (MERS-CoV): 0.74 µM; inhibition at 0.00152 µM (SARS-CoV-2 nLUC; [4]): -15.2%; inhibition at 0.00457 µM (SARS-CoV-2 nLUC; [4]): -13.7%; inhibition at 0.01372 µM (SARS-CoV-2 nLUC; [4]): -12.3%; inhibition at 0.04115 µM (SARS-CoV-2 nLUC; [4]): -15.7%; inhibition at 0.12346 µM (SARS-CoV-2 nLUC; Severe acute respiratory syndrome coronavirus 2, drug 0.12346 µM, read-out: % Inhibition (Fig1D)): -15.4%; inhibition at 0.37037 µM (SARS-CoV-2 nLUC; [4]): -23%; inhibition at 1.11111 µM (SARS-CoV-2 nLUC; Severe acute respiratory syndrome coronavirus 2, drug 1.11111 µM, read-out: % Inhibition (Fig1D)): -42%; inhibition at 3.33333 µM (SARS-CoV-2 nLUC; [4]): 94.8%; inhibition at 10 µM (SARS-CoV-2 nLUC; [5]): 99.3%; EC50 (SARS-CoV-2 nLUC; [6]): 2800 nM; EC50 (SARS-CoV-2 nLUC; [7]): 2800 nM; Relative Light Units (RLU) (FigS1A) (SARS-CoV-2 nLUC; drug 0.004 µM): 1.49E+08 RLU and 1.35E+08 RLU and 1.13E+08 RLU; Relative Light Units (RLU) (FigS1A) (SARS-CoV-2 nLUC; drug 0.04 µM): 1.45E+08 RLU and 1.37E+08 RLU and 1.12E+08 RLU; Relative Light Units (RLU) (FigS1A) (SARS-CoV-2 nLUC; drug 0.12 µM): 1.47E+08 RLU and 1.37E+08 RLU and 1.32E+08 RLU; Relative Light Units (RLU) (FigS1A) (SARS-CoV-2 nLUC; drug 0.37 µM): 1.64E+08 RLU and 1.46E+08 RLU and 1.36E+08 RLU; Relative Light Units (RLU) (FigS1A) (SARS-CoV-2 nLUC; drug 1.1 µM): 1.69E+08 RLU and 1.76E+08 RLU and 1.62E+08 RLU; Relative Light Units (RLU) (FigS1A) (SARS-CoV-2 nLUC; drug 3.3 µM): 6190000 RLU and 6040000 RLU and 1.36E+07 RLU; Relative Light Units (RLU) (FigS1A) (SARS-CoV-2 nLUC; drug 10 µM): 708000 RLU and 801000 RLU and 866000 RLU; intact ester in plasma [2]: no or very minimal intact ester observed in plasma; antiviral activity / infectious virus titers in HAE cell cultures (SARS-CoV-2): confirmed the antiviral activity; antiviral activity / infectious virus titers in HAE cell cultures (SARS-CoV-2; listed as GS621763): reduces viral titers; antiviral activity against alpha, beta, and gamma SARS-CoV-2 VOCs [3]: potently antiviral

Question: Which “NHC plasma exposures, dose proportionality” value (MPV 30 mg/kg or 100 mg/kg oral, BID) does the source give for `CC(C)C(=O)OC[C@H]1O[C@@H](n2ccc(NO)nc2=O)[C@H](O)[C@@H]1O` [MPV, molnupiravir, reference compound] here?
Answer: dose proportional increases in NHC plasma exposures

Question: For `O=c1nc(NO)ccn1[C@@H]1O[C@H](CO)[C@@H](O)[C@H]1O` [NHC], which “Plasma NHC, FigS5” value (Group 1, time 12.5, individual mice, oral MPV) is on record?
Answer: 48.2 μM and 56.9 μM (2×) and 55.4 μM

Question: With `CCC(CC)COC(=O)C(C)NP(=O)(OCC1OC(C#N)(c2ccc3c(N)ncnn23)C(O)C1O)Oc1ccccc1` (centres unmarked) [RDV (GS-5734)] as the molecule, how does the “% Inhibition (Fig1F)” value (SARS-CoV-2 fLUC; concentration 0.024691 (unit not given)) read?
Answer: 24.385% and 40.4776%

Question: What about the “% Inhibition (Fig1F)” value (SARS-CoV-2 fLUC; concentration 0.074074 (unit not given)) of the same molecule?
Answer: 79.3894% and 81.2356%

Question: What about the “% Inhibition (Fig1F)” value (SARS-CoV-2 fLUC; [8]) of the same molecule?
Answer: 99.4779% and 99.6549%

Question: What about the “% Inhibition (Fig1F)” value (SARS-CoV-2 fLUC; [9]) of the same molecule?
Answer: 99.9727% and 99.9783%

Question: What about the “% Inhibition (Fig1F)” value (SARS-CoV-2 fLUC; [10]) of the same molecule?
Answer: 99.9953% and 99.9938%

Question: What does the source list for `CCC(CC)COC(=O)[C@H](C)N[P@](=O)(OC[C@H]1O[C@@](C#N)(c2ccc3c(N)ncnn23)[C@H](O)[C@@H]1O)Oc1ccccc1` [RDV, remdesivir, reference compound]?
Answer: EC50 (SARS-CoV-2 fLUC): 0.0371 µM; EC50 (MERS-CoV): 0.16 µM; EC50 (SARS-CoV-2 nLUC; [6]): 294 nM; EC50 (SARS-CoV-2 nLUC; [7]): 290 nM
